Patent US20180279622A1, “1-AMINO-1-CYCLOPROPANECARBOXYLIC ACID FORMULATIONS” (Valent BioSciences LLC, priority 2017, published 2018)
Read-outs that look alike come from different tables or passages of the source.

Legend:
[1] = Color change inhibition (Gardner Color Scale); format: physicochemical; conditions: for Color (Gardner Scale): 54° C. for two weeks
Method: Specifically, the color changed from clear or a 1 on the Gardner Scale to a yellow color of 4-5 on the Gardener Scale. See ASTM D1544-04(2010), Standard Test Method for Color of Transparent Liquids (Gardner Color Scale), ASTM International, West Conshohocken, Pa., 2010, www.astm.org for explanation of the Gardner scale. To overcome this problem several methods were tested including lowering the pH to 4.0, packaging under nitrogen gas blanket, adding specific salts, chelating agents, antioxidants or preservatives.

[2] = ACC precipitation and crystallization tests; format: physicochemical
Method: To overcome this problem, salts were added individually to 10% w/w ACC aqueous solutions. These solutions were stored at room temperature and analyzed for precipitate formation.

[3] = ACC precipitation and crystallization tests; format: physicochemical; remark: listed apart in the source
cotton cotyledons = assay: Cotton cotyledon bioefficacy assay (headspace ethylene evolution); format: in vivo
Method: The solutions were amended with 0.05% (v/v) of a non-ionic surfactant and spray applied to the adaxial surface of 10-day old cotton cotyledons using a track sprayer. In addition to ACC-containing solutions, appropriate controls were tested. Two days (48 hours) after spray application, the cotyledons from each plant were removed, weighed and incubated in sealed glass vials for 4 to 7 hours. Headspace ethylene evolution by the cotyledons was measured by gas chromatography using standard methods. The assay from Example 5, above, was repeated with a formulation containing 0.2% w/w EDTA.

Gala apple trees = assay: Apple thinning; format: in vivo; conditions: foliar spray at 18 to 20 mm mean fruit diameter
Method: The formula from Example 8, above, was diluted to prepare 200 and 400 ppm ACC solutions. These solutions were applied as a foliar spray to Gala apple trees grown at three separate locations when the mean fruit diameter was from 18 to 20 millimeters. […] Thinning activity is expressed as the number of fruit set per 100 flower clusters after the completion of natural fruit drop.

[4] = salt added to 10% w/w ACC aqueous solution, stored at room temperature
[5] = salt added to 10% w/w ACC aqueous solution, 5° C. overnight
[6] = additive 0.2 % w/w in 10% ACC, 10% calcium chloride, Kathon CG/ICP formulation

Cl [2N hydrochloric acid, hydrochloric acid]
Color (Gardner Scale) ([1]; additive 0.6-0.9 % w/w): 3-4

CC(O)C(=O)[O-].CC(O)C(=O)[O-].O.O.O.O.O.[Ca+2] (stereo not drawn) [(CH3CH(OH)COO)2Ca•5H2O]
Precipitation (room temperature) [2, 4]: YES | Precipitation (5° C.) [3, 5]: YES

NC1(C(=O)O)CC1 [ACC, 1-amino-1-cyclopropanecarboxylic acid]
Precipitation ([2]; 10% w/w ACC free acid in water, no salt, room temperature and/or 5° C.): precipitate | Ethylene (cotton cotyledons; ACC 500 ppm, molar ratio 1:0, 48 hours after spray): 39.80 nL/gFW/hr | Ethylene (cotton cotyledons; Example 6, ACC 500 ppm): 27.6 nL/g FW/hr | Thinning Activity (Gala apple trees; Geneva, NY, 200 ppm ACC): 47 fruit set per 100 flower clusters | Thinning Activity (Gala apple trees; Geneva, NY, 400 ppm ACC): 37 fruit set per 100 flower clusters | Thinning Activity (Gala apple trees; Monitor, WA, 200 ppm ACC): 32 fruit set per 100 flower clusters | Thinning Activity (Gala apple trees; Monitor, WA, 400 ppm ACC): 10 fruit set per 100 flower clusters | Thinning Activity (Gala apple trees; Parkdale, OR, 200 ppm ACC): 267 fruit set per 100 flower clusters | Thinning Activity (Gala apple trees; Parkdale, OR, 400 ppm ACC): 194 fruit set per 100 flower clusters

O=[N+]([O-])[O-].[Ag+] [AgNO3]
Precipitation (room temperature) [2, 4]: YES | Precipitation (5° C.) [3, 5]: YES

O=S(=O)([O-])[O-].O=S(=O)([O-])[O-].O=S(=O)([O-])[O-].[Al+3].[Al+3] [Al2(SO4)3]
Precipitation (room temperature) [2, 4]: YES | Precipitation (5° C.) [3, 5]: YES

O=C1O[C@H]([C@@H](O)CO)C(O)=C1O [Ascorbic acid]
Color (Gardner Scale) [1, 6]: >18

[Ba+2].[Cl-].[Cl-] [BaCl2]
Precipitation (5° C.) [3, 5]: YES

O=[N+]([O-])[O-].O=[N+]([O-])[O-].[Ca+2] [Ca(NO3)2]
Precipitation (5° C.) [3, 5]: YES

[Ca+2].[Cl-].[Cl-] [CaCl2, calcium chloride]
Ethylene (cotton cotyledons; CaCl2 550 ppm, molar ratio ACC:CaCl2 0:1, 48 hours after spray): 1.49 nL/gFW/hr

O=S(=O)([O-])[O-].[Ca+2] [CaSO4]
Precipitation (room temperature) [2, 4]: YES | Precipitation (5° C.) [3, 5]: YES

O=C(O)CC(O)(CC(=O)O)C(=O)O [Citric acid]
Color (Gardner Scale) [1, 6]: 4-5

O=C(O)CN(CCN(CC(=O)O)CC(=O)O)CC(=O)O [EDTA, ethylenediaminetetraacetic acid]
Gardner scale score ([1]; EDTA at 0.1% or 0.2% w/w, 2 weeks at 54° C.): ≤ 2 | Gardner scale score ([1]; EDTA at 0.1% or 0.2% w/w, 2 weeks plus 6 additional weeks at 54° C.): 1-2 | Color maintenance versus pH ([1]; EDTA at 0.1% or 0.2% w/w, pH 4.0): best results | Time clear color maintained ([1]; EDTA at 0.1% or 0.2% w/w, pH 5.2, 54° C.): at least 4 weeks | Color (Gardner Scale) ([1]; additive 0.1 % w/w): 1-2 | Color (Gardner Scale) ([1]; additive 0.5 % w/w): 1-2

O=C(O)/C=C/C(=O)O [Fumaric acid]
Color (Gardner Scale) [1, 6]: 4-5

O=C([O-])CC(O)(CC(=O)[O-])C(=O)[O-].[Fe+3] [Iron(III) citrate hydrate]
Precipitation (room temperature) [2, 4]: YES | Precipitation (5° C.) [3, 5]: YES

[Cl-].[K+] [KCl]
Precipitation (room temperature) [2, 4]: YES | Precipitation (5° C.) [3, 5]: YES

O=[N+]([O-])[O-].[K+] [KNO3]
Precipitation (room temperature) [2, 4]: YES | Precipitation (5° C.) [3, 5]: YES

O=[N+]([O-])[O-].O=[N+]([O-])[O-].[Mg+2] [Mg(NO3)2]
Precipitation (5° C.) [3, 5]: YES

[Cl-].[Cl-].[Mg+2] [MgCl2]
Precipitation (5° C.) [3, 5]: YES

Cl.N [NH4Cl]
Precipitation (room temperature) [2, 4]: YES | Precipitation (5° C.) [3, 5]: YES

N.O=[N+]([O-])O [NH4NO3]
Precipitation (room temperature) [2]: YES | Precipitation (5° C.) [3]: YES

CC(=O)[O-].[Na+] [Sodium acetate]
Color (Gardner Scale) [1, 6]: 4-5

O=C([O-])CC(O)(CC(=O)[O-])C(=O)[O-].[Na+].[Na+].[Na+] [Sodium citrate]
Color (Gardner Scale) [1, 6]: 4-5

NC(N)=O [Urea]
Color (Gardner Scale) [1, 6]: 5-6
